Assays:
[1] = tested on: human NKT cells; assay: human iNKT cell assay: intracellular cytokine production in whole PBMCs by FACS; assay type: cell-based; settings: human PBMC, 15 h, 1 μg/ml αGalCer or 10 μg/ml purified EhLPPG, FIG. 1
[2] = liver toxicity: serum ALT after intraperitoneal injection; assay type: in vivo; settings: C57BL/6 mice, four-time intraperitoneal injection; EhLPPG 1, 10, 25 and 50 μg/ml; αGalCer 0.1, 1 and 10 μg/ml
[3] = tested on: Leishmania major; assay: in vitro Leishmania assay: infected bone marrow derived macrophages; settings: for percentage of L. major infected macrophages / parasite load per macrophage: BMM, 48 h

Q: What does the source list for `CCCCCCCCCCCCCCCCCCCCCCCCCC(=O)N[C@@H](CO[C@H]1O[C@H](CO)[C@H](O)[C@H](O)[C@H]1O)[C@H](O)[C@H](O)CCCCCCCCCCCCCC` [αGalCer, α-galactosylceramide]?
A: production of tumor necrosis factor (TNF) α and IL-17 in NKT cells [1]: led to the production of tumor necrosis factor (TNF) α and IL-17; CD4+NKT cells positive for IFN-γ and IL-4 ([1]; αCD28 co-stimulant): considerable amounts of CD4+NKT cells positive for IFN-γ and IL-4; liver ALT enzyme level in serum [2]: significant increase in the ALT levels; percentage of L. major infected macrophages ([3]; spleen-derived lymphocytes co-incubated, FIG. 5B): significantly reduced; parasite load per macrophage ([3]; with addition of spleen cells, FIG. 5D): a significant reduction; percentage of L. major infected macrophages ([3]; without spleen cells, FIG. 5A): significantly reduced; parasite load per macrophage ([3]; without spleen cells, FIG. 5C): significantly reduced the amount of parasites within the macrophages; expression of iNOS ([3]; preliminary results, data not shown): increase in the expression of iNOS

From patent publication US20170298083A1, “NEW IMMUNOSTIMULATORY COMPOUNDS” (Bernhard-Nocht-Institut für Tropenmedizin, priority 2014, published 2017)
